3 compounds from patent publication US9908845B2, “Aryl ethers and uses thereof” (Peloton Therapeutics, Inc., priority 2013, dated 2018) can be followed below.

The structures appear in SMILES notation.

In assay [1] the test system is EPO and PGK1 mRNA in mouse kidney. Put plainly: In vivo PK/PD study: mouse kidney mRNA levels by qRT-PCR. On the set-up: species or system SCID/Biege mice. Conditions: oral gavage, three times at 12 hour intervals. How it is done:
(§1) About 5×10^6 renal cell carcinoma 786-O tumor cells (ATCC® CRL-1932™, VHL and HIF-1α null cell line) in PBS and Matrigel (1:1 in volume) were injected subcutaneously at the right flanks of SCID/Biege mice at 6-7 weeks of age for xenograft development. When the xenografts reached about 450 mm^3 in size, the tumor bearing mice were randomly divided into 4 groups (n=4). Plasma was collected prior to treatment by retro-orbital bleeding. […] All animals were sacrificed at 12 hours post last dose. Tumor, kidney, and plasma were collected from each animal. Total RNA was extracted from the tumors and kidneys. The mRNA levels of HIF-1α, HIF-2α and their respective target genes were determined by qRT-PCR (FIG. 1).

The subject of assay [2] is human VEGFA. Put plainly: plasma human VEGF level of 786-O xenograft bearing mice. Type of assay: in vivo. Particulars: 10, 30 and 100 mg/kg three times at 12 hour intervals, prior to treatment vs 12 h post treatment. Background: In xenograft studies the graft and the host belong to different species.
Assay [3] concerns HIF-2α and HIF-2α-regulated genes (PAI-1, CCND1, VEGFA, and GLUT1). Put plainly: mRNA levels in tumor of 786-O xenograft bearing mice. Type of assay: in vivo. Particulars: renal cell carcinoma 786-O xenograft bearing mice; 10, 30 and 100 mg/kg three times at 12 hour intervals.
The test system of a further assay is 786-O xenograft. As to the kind of experiment: tumor size in 786-O xenograft bearing mice, single agent. Conditions: 3, 10, 30 and 100 mg/kg BID for 20 days. Type of assay: in vivo.
The test system of assay [4] is human VEGFA. Put plainly: In vivo PK/PD study: plasma level of human VEGFA by ELISA. On the set-up: species or system SCID/Biege mice. Conditions: 10, 30 or 100 mg/kg oral gavage, three times at 12 hour intervals. How it is done: as §1
The subject of assay [5] is 786-O renal cell carcinoma cells. Put plainly: In vivo efficacy study, renal cell carcinoma 786-O xenograft model. Set-up: species or system SCID/Biege mice.
In assay [6] the target is HIF-2α HIS TAG-PASB Domain. As to the kind of experiment: HIF-2α Scintillation Proximity Assay (SPA), probe displacement. It counts as binding. How it is done:
The percent inhibition was determined and IC50 values were calculated using the Dotmatics system based on the following equation: % inhibition=[(high control−sample)/(high control−low control)]×100.
(In a scintillation proximity assay essentially only radioactivity close to the scintillant gives light.)

Regarding `N#Cc1cc(F)cc(Oc2ccc(S(=O)(=O)C(F)F)c3c2CC(F)(F)[C@H]3O)c1` [Compound 15, 3-[(1S)-7-(difluoromethylsulfonyl)-2,2-difluoro-1-hydroxy-indan-4-yl]oxy-5-fluoro-benzonitrile], in assay [1], the “Level of EPO mRNA in mouse kidney” value is “reduced” and the “mRNA level of PGK1 in mouse kidney” value is on record as “remained unchanged”. Also, the “plasma level of human VEGFA” value in the assay with human VEGFA [2] is listed as “reduced”. The “mRNA levels of HIF-2α and HIF-2α-regulated genes (PAI-1, CCND1, VEGFA, and GLUT1) in tumor” value in assay [3] is recorded as “reduced”. In the assay on 786-O xenograft, the tumor size result is “tumor size reduction and regression”. Besides, in the assay with human VEGFA [4], the “Human VEGFA in the plasma of 786-O tumor-bearing mice” value was “significant reduction”. The “Reduction of tumor size vs vehicle (t-Test)” value in assay [5] (all treatment groups, 786-O xenograft model) is “statistically significant reduction”.

What is called IC50 is the point on the concentration scale where inhibition reaches its midpoint. In assay [6], `O=S(=O)(c1ccc(Oc2ccc(F)c(Cl)c2)c2c1[C@H](O)C(F)(F)C2)C(F)F` [Compound 26, (S)-4-(3-Chloro-4-fluorophenoxy)-7-((difluoromethyl)sulfonyl)-2,2-difluoro-2,3-dihydro-1H-inden-1-ol] returned an IC50 of less than 5 nM.

`CCN(CC)CCNC(=O)c1c(C)[nH]c(/C=C2\C(=O)Nc3ccc(F)cc32)c1C` [Sutent, sutent, reference compound]: the “Tumor size Mean ± SEM” value in assay [5] (40 mg/kg QD, after 20 days of dosing) was determined as 211.59 mm^3.
